These results are taken from ChEMBL document CHEMBL2380208, “Novel quinoline derivatives as inhibitors of bacterial DNA gyrase and topoisomerase IV” (Bioorg Med Chem Lett, 2013).

Molecules are shown by their SMILES. Converted amounts (≈) assume the structure as drawn.

For orientation: IC50 means the concentration needed to halve the response being measured. Read a low IC50 as higher potency. The term MIC denotes the least concentration at which growth counts as inhibited. As usually defined, the bioavailability is dose-corrected exposure relative to a reference, in per cent. A word on the MIC90: it is the lowest concentration that inhibits either 90% of growth or 90% of the strains tested, depending on the study. Lower therefore signals higher susceptibility.

The nature of data set [1]: Inhibition of Streptococcus pneumoniae topoisomerase 4.
Data set [2] is described as follows: Inhibition of Streptococcus pneumoniae DNA gyrase.
In data set [3] the test system is Staphylococcus aureus. The experiment in a line: Antibacterial activity against Staphylococcus aureus 1146. The class given is functional.
Data set [4] is described as follows: Inhibition of human DNA topoisomerase 4.
Data set [5] has as its system Streptococcus pyogenes. Kind of data set: Antibacterial activity against Streptococcus pyogenes 02C0203 infected in mouse assessed as survival compound administered 0.5 to 4 hrs post-infection measured after 7 days. To be noted: 02C0203, in Mus musculus, read-out: PD50.
The nature of data set [6]: Inhibition of Staphylococcus aureus DNA topoisomerase 4.
The test system of data set [7] is Staphylococcus aureus. The experiment in a line: Antibacterial activity against fluoroquinolone-resistant Staphylococcus aureus 1095. The class given is functional.
The subject of data set [8] is Staphylococcus aureus. Kind of data set: Antibacterial activity against fluoroquinolone-resistant Staphylococcus aureus 1095 infected in mouse assessed as survival compound administered 0.5 to 4 hrs post-infection measured after 7 days. In kind it is functional. The conditions noted are these: read-out: PD50.
Data set [9] deals with DNA gyrase subunit A (Staphylococcus aureus, UniProt P20831, D83N). Kind of data set: Inhibition of Staphylococcus aureus DNA gyrase D83N mutant.
The test system of data set [10] is Staphylococcus aureus. The experiment in a line: Antibacterial activity against fluoroquinolone-resistant Staphylococcus aureus harboring DNA gyrase M121K mutant. In kind it is functional.
The target in data set [11] is DNA gyrase subunit A (Staphylococcus aureus, UniProt P20831, M121K). Kind of data set: Inhibition of Staphylococcus aureus DNA gyrase M121K mutant.
Data set [12] in a line: Volume of distribution at steady state in rat at 2 mg/kg, iv and 5 mg/kg, po. In kind it is ADME, organism-based. To be noted: in vivo, read-out: Vdss.
Data set [13] in a line: Oral bioavailability in rat at 5 mg/kg. In kind it is ADME, organism-based. The conditions noted are these: in vivo.
In data set [14] the test system is Staphylococcus aureus. The experiment in a line: Antibacterial activity against Staphylococcus aureus. In kind it is functional.
Data set [15] concerns the target Voltage-gated inwardly rectifying potassium channel KCNH2 (Homo sapiens, UniProt Q12809). The experiment in a line: Inhibition of human ERG channel in HEK293 cells by voltage-gated patch clamp technique. The class given is cell-based. (In general: In patch-clamp work, channel activity is measured electrically.)
Data set [16] deals with Staphylococcus aureus. Kind of data set: Antibacterial activity against fluoroquinolone-resistant Staphylococcus aureus harboring DNA gyrase D83N mutant. The class given is functional.
In data set [17] the target is DNA gyrase (Staphylococcus aureus, UniProt P0A0K8+P20831). The experiment in a line: Inhibition of Staphylococcus aureus DNA gyrase. The class given is protein-complex assay.
The test system of data set [18] is Streptococcus pyogenes. The experiment in a line: Antibacterial activity against Streptococcus pyogenes. In kind it is functional.
Data set [19] can be described thus: Clearance in rat at 2 mg/kg, iv and 5 mg/kg, po. In kind it is ADME, organism-based. The conditions noted are these: in vivo.

Voltage-gated inwardly rectifying potassium channel KCNH2, sequence (Q12809 whole entry): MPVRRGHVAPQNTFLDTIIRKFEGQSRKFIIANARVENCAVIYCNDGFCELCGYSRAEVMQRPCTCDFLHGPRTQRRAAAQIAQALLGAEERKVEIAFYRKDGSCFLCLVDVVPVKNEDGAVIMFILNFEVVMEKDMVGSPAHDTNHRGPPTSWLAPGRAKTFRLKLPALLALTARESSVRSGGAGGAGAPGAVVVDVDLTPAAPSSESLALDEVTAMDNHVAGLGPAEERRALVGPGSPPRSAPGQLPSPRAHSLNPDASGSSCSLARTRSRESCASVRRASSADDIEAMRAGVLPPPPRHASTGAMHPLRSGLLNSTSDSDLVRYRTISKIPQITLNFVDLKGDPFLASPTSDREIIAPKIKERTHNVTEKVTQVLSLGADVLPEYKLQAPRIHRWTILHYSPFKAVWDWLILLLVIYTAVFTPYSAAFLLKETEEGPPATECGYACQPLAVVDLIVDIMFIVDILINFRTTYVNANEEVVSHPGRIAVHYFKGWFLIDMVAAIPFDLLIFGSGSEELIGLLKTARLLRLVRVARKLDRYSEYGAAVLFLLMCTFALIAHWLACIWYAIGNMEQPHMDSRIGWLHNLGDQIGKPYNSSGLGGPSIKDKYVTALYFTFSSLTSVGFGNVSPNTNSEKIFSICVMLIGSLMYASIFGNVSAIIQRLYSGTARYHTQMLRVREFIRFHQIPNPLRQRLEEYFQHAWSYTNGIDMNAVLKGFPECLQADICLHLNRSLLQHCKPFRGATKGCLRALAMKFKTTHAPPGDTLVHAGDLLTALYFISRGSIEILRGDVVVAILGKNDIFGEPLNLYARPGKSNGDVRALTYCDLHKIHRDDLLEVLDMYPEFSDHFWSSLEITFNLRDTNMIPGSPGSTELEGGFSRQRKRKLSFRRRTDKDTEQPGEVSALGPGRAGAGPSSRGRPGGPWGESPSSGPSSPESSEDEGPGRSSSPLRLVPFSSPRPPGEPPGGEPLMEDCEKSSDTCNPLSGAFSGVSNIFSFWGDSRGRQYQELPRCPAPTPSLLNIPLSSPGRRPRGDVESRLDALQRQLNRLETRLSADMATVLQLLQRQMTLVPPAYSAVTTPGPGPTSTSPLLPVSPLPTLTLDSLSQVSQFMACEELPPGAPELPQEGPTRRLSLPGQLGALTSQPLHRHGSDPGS

Consider `COc1ccc2nccc([C@H](O)CC[C@@H]3CCN(C4CC(c5ccccc5)C4)C[C@@H]3C(=O)O)c2c1` (some centres undefined), for which the IC50 in [1] was 30 µM; in data set [2] it was 21.7 µM; in [4], > 200 µM. In addition, the minimal inhibitory concentration (MIC) in data set [3] turned out to be 0.23 µg/mL (≈ 0.485 µM).

Take `COc1ccc2nccc([C@@H](O)CC[C@@H]3CCN(C4CC(c5ccccc5)C4)C[C@@H]3C(=O)O)c2c1` (some centres undefined): the ED50 was determined as 14.1 mg/kg in data set [5] and 6.9 mg/kg in data set [8]. Further, the IC50 in data set [1] is 8.37 µM; in data set [2], 8.84 µM; in data set [6] it was 32.1 µM; in [9], > 200 µM; in data set [11] it was > 200 µM; in [4], > 200 µM. In addition, the results for the IC50 in [15] and in [17] were 24.9 µM and 1190 nM, respectively. The minimal inhibitory concentration (MIC) in data set [7] is 0.2 µg/mL (≈ 0.421 µM); in data set [10], ≥ 64 µg/mL; in [3], 0.09 µg/mL (≈ 0.19 µM); in data set [16] it was ≥ 32 µg/mL. Also, in [12], the Vd is 1.24 L/kg. For the same compound, the bioavailability in data set [13] came out at 27%. Also, the MIC90 in data set [14] was 0.25 µg/mL (≈ 0.527 µM); in data set [18] it was 1 µg/mL (≈ 2.11 µM). The same compound displayed a clearance in data set [19] of 43.1 mL/min/kg.

For the compound `COc1ccc2nccc([C@@H](O)CC[C@@H]3CCN(CCSc4cccs4)C[C@@H]3C(=O)O)c2c1`, the IC50 in data set [1] is 6.54 µM; in [2] it was 5.85 µM; in data set [6], 84.6 µM; in data set [4] it was > 200 µM; in data set [17], 2420 nM. The MIC in data set [7] is 0.1 µg/mL (≈ 0.205 µM); in [10], > 64 µg/mL; in data set [3] it was 0.068 µg/mL (≈ 0.14 µM); in data set [16], > 64 µg/mL. The ED50 in data set [8] was determined as 34.7 mg/kg.

`COc1ccc2nccc([C@@H](O)CC[C@@H]3CCN(C4CC(c5cc(F)cc(F)c5)C4)C[C@@H]3C(=O)O)c2c1` (some centres undefined): the IC50 in data set [6] came out at 15 µM; in data set [15] it was 7.18 µM; in data set [17], 1560 nM. Besides, the MIC in data set [7] was 0.25 µg/mL (≈ 0.49 µM); in data set [10], 8 µg/mL (≈ 15.7 µM); in [3], ≤ 0.0625 µg/mL; in [16] it was 8 µg/mL (≈ 15.7 µM).

`COc1ccc2nccc([C@@H](O)CC[C@@H]3CCN(C4CC(c5c(F)cccc5F)C4)C[C@@H]3C(=O)O)c2c1` (some centres undefined): the ED50 in data set [5] was found to be 22 mg/kg; in data set [8], 16.3 mg/kg. Further, the IC50 in data set [6] was > 100 µM; in [17], 2930 nM. Further, the MIC was 0.25 µg/mL (≈ 0.49 µM) in data set [7], 23 µg/mL (≈ 45 µM) in data set [10], 0.125 µg/mL (≈ 0.245 µM) in data set [3] and 32 µg/mL (≈ 62.7 µM) in data set [16]. Besides, the Vd in data set [12] came out at 3 L/kg. The figures for the MIC90 in data set [14] and in data set [18] were 0.25 µg/mL (≈ 0.49 µM) and 1 µg/mL (≈ 1.96 µM), respectively. The same compound showed a clearance in data set [19] of 39.7 mL/min/kg.

For `COc1ccc2ncc(F)c([C@@H](O)CC[C@@H]3CCN(CCSc4cccs4)C[C@@H]3C(=O)O)c2c1`, the IC50 in data set [6] was 30.4 µM; in data set [4], > 200 µM; in data set [15], 23.6 µM; in [17], 1560 nM. The MIC is 0.125 µg/mL (≈ 0.248 µM) in data set [7], 64 µg/mL (≈ 127 µM) in data set [10], ≤ 0.063 µg/mL in data set [3] and 32 µg/mL (≈ 63.4 µM) in data set [16]. The ED50 in data set [8] was determined as 22.1 mg/kg. Besides, the Vd in data set [12] stood at 2.55 L/kg. In addition, the bioavailability in data set [13] worked out at 31.5%. The MIC90 was determined as 0.125 µg/mL (≈ 0.248 µM) in [14] and 0.25 µg/mL (≈ 0.495 µM) in data set [18]. In addition, in data set [19], the clearance is 32.7 mL/min/kg.

Take `O=C(O)c1cn(C2CC2)c2cc(N3CCNCC3)c(F)cc2c1=O` [CIPROFLOXACIN]: the MIC90 in data set [14] is > 64 µg/mL; in data set [18], 0.5 µg/mL (≈ 1.51 µM).

With `COc1ccc2nccc(C(O)CC[C@@H]3CCN(C[C@@H]4C[C@H]4c4ccccc4)C[C@@H]3C(=O)O)c2c1` (mixture of isomers), the values for the 50% inhibitory concentration (IC50) in [1], in [2] and in data set [4] were 7.5 µM, 50 µM and 150 µM, respectively. The compound also yielded an MIC in data set [3] of 1 µg/mL.

`COc1ccc2nccc(C(O)CC[C@@H]3CCN(C/C=C/c4cc(F)ccc4F)C[C@@H]3C(=O)O)c2c1` (some centres undefined): the half-inhibitory concentration (IC50) is 3.75 µM in data set [1]; 6.25 µM in data set [2]; 8.84 µM in [6]; 100 µM in [4]; 7660 nM in [17]. In addition, the minimal inhibitory concentration (MIC) in data set [7] came out at 0.5 µg/mL (≈ 1.01 µM); in [10], 13 µg/mL (≈ 26.2 µM); in data set [3], 0.25 µg/mL (≈ 0.503 µM); in [16], 10 µg/mL (≈ 20.1 µM).

Consider `COc1ccc2nccc([C@@H](O)CC[C@@H]3CCN(C4CC(c5cc(F)cc(F)c5F)C4)C[C@@H]3C(=O)O)c2c1` (some centres undefined), for which the IC50 in data set [6] was determined as 8.4 µM; in data set [15], 30.9 µM; in [17] it was 1560 nM. Moreover, the MIC is 0.125 µg/mL (≈ 0.236 µM) in data set [7], 8 µg/mL (≈ 15.1 µM) in data set [10], ≤ 0.0625 µg/mL in [3] and 8 µg/mL (≈ 15.1 µM) in data set [16].

For the compound `COc1ccc2nccc([C@@H](O)CC[C@@H]3CCN(C4CC(c5cccc(F)c5F)C4)C[C@@H]3C(=O)O)c2c1` (some centres undefined), the IC50 in [6] is 30 µM; in data set [17], 1560 nM. The MIC is < 0.0625 µg/mL in data set [7], 32 µg/mL (≈ 62.7 µM) in data set [10], ≤ 0.0625 µg/mL in data set [3] and 32 µg/mL (≈ 62.7 µM) in [16].

On to `COc1ccc2nccc([C@@H](O)CC[C@@H]3CCN(C/C=C/c4ccccc4)C[C@@H]3C(=O)O)c2c1`, for which the figures for the IC50 in data set [6] and in data set [17] were > 200 µM and 4700 nM, respectively. The MIC in data set [7] was 1 µg/mL (≈ 2.17 µM); in data set [10], > 64 µg/mL; in [3] it was 0.5 µg/mL (≈ 1.09 µM); in data set [16], > 64 µg/mL.

`COc1ccc2nccc([C@@H](O)CC[C@@H]3CCN(C4CC(c5cc(F)ccc5F)C4)C[C@@H]3C(=O)O)c2c1` (some centres undefined): the ED50 in data set [5] was 32.5 mg/kg; in [8] it was 28.2 mg/kg. Also, the IC50 came out at 9.62 µM in data set [6], 9.97 µM in [15] and 3000 nM in data set [17]. The minimal inhibitory concentration (MIC) in [7] amounted to 0.5 µg/mL (≈ 0.979 µM); in data set [10], 5.7 µg/mL (≈ 11.2 µM); in data set [3] it was 0.25 µg/mL (≈ 0.49 µM); in [16] it was 10 µg/mL (≈ 19.6 µM). Further, the Vd in [12] amounted to 1.3 L/kg. In data set [13], this compound yielded a bioavailability of 47%. Also, the figures for the MIC90 in data set [14] and in data set [18] were 0.25 µg/mL (≈ 0.49 µM) and 1 µg/mL (≈ 1.96 µM), respectively. Also, the clearance in data set [19] is 43.9 mL/min/kg.
